Results reported in the supplement of paper PMC11061612.

What was measured:
Assay in all cases: combination Emax (second highest fraction inhibited in the dose matrix, 72 h); higher = more inhibition; extreme values may be limits of the assay
M059J (Glioblastoma) = system: M059J (Glioblastoma)
Outline: (§1)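 Bliss excess equals the observed combination effect minus the expected value EA + EB − EA·EB, where EA and EB are the effects of each agent alone. Combination Emax is the second-highest inhibition within the matrix. Inhibition was scaled from CellTiter-Glo 2.0 luminescence, with 0 set by vehicle wells and 1 by blank wells, after 72 hours of two-drug dosing of cells plated in 1536-well plates.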

[1] = system: CHSA8926 (Chondrosarcoma)
Outline: as §1

[2] = system: MOG-G-CCM (Low Grade Glioma)
Outline: as §1

SJSA-1 (Osteosarcoma) = system: SJSA-1 (Osteosarcoma)
Outline: as §1

[3] = system: NCI-H520 (Squamous Cell Lung Carcinoma)
Outline: as §1

[4] = system: IM-95 (Gastric Carcinoma)
Outline: as §1

[5] = system: VMRC-RCZ (Kidney Carcinoma)
Outline: as §1

[6] = system: MN-60 (B-Lymphoblastic Leukemia)
Outline: as §1

[7] = system: KY821 (Acute Myeloid Leukemia)
Outline: as §1

[8] = system: COR-L279 (Small Cell Lung Carcinoma)
Outline: as §1

[9] = system: ST486 (Burkitt's Lymphoma)
Outline: as §1

[10] = system: CW-2 (Colorectal Carcinoma)
Outline: as §1

[11] = system: SU-DHL-5 (B-Cell Non-Hodgkin's Lymphoma)
Outline: as §1

[12] = system: SK-GT-4 (Esophageal Adenocarcinoma)
Outline: as §1

[13] = system: KYSE-270 (Esophageal Squamous Cell Carcinoma)
Outline: as §1

[14] = system: NCI-H929 (Plasma Cell Myeloma)
Outline: as §1

[15] = system: NCI-H661 (Non-Small Cell Lung Carcinoma)
Outline: as §1

[16] = system: NCI-H3122 (Lung Adenocarcinoma)
Outline: as §1

[17] = system: KU812 (Chronic Myelogenous Leukemia)
Outline: as §1

[18] = system: DMS-114 (Small Cell Lung Carcinoma)
Outline: as §1

Row | Compound | combination Emax (M059J (Glioblastoma)) | combination Emax [1] | combination Emax [2] | combination Emax (SJSA-1 (Osteosarcoma)) | combination Emax [3] | combination Emax [4] | combination Emax [5] | combination Emax [6] | combination Emax [7] | combination Emax [8] | combination Emax [9] | combination Emax [10] | combination Emax [11] | combination Emax [12] | combination Emax [13] | combination Emax [14] | combination Emax [15] | combination Emax [16] | combination Emax [17] | combination Emax [18]
1 | CCc1c2c(nc3ccc(O)cc13)-c1cc3c(c(=O)n1C2)COC(=O)[C@]3(O)CC [SN-38] + CN(C)CCCOc1ccc(-c2ccc3ncc4c(c3c2)n(C2CCOCC2)c(=O)n4C)cn1 [AZD0156] (first compound max 0.3 µM, 7x7, partner max 1 µM) | 0.978 | 0.319 | 0.429 | 0.673 | 0.786 | 0.499 | 0.261 | 0.838 | 0.998 | 1 | 0.733 | 0.624 | 1 | 0.258 | 0.946 | 0.869 | 0.463 | 0.925 | 0.72 | 0.514
2 | NC1(C(=O)N[C@@H](CCO)c2ccc(Cl)cc2)CCN(c2ncnc3[nH]ccc23)CC1 [Capivasertib] + Cn1cnc2c(F)c(Nc3ccc(Br)cc3Cl)c(C(=O)NOCCO)cc21 [Selumetinib] (first compound max 10 µM, 7x7, partner max 10 µM) | 0.415 | 0.48 | 0.548 | 0.658 | 0.548 | 0.502 | 0.388 | 0.188 | 0.891 | 0.551 | 0.559 | 0.482 | 1 | 0.767 | 0.476 | 1 | 0.427 | 0.882 | 0.983 | 0.456
3 | Cn1cnc2c(F)c(Nc3ccc(Br)cc3Cl)c(C(=O)NOCCO)cc21 [Selumetinib] + C[C@@H]1COCCN1C2=NC(=NC(=C2)C3(CC3)[S@](=N)(=O)C)C4=C5C=CNC5=NC=C4 [AZD6738] (first compound max 10 µM, 7x7, partner max 10 µM) | 0.291 | 0.404 | 0.502 | 0.559 | 0.406 | 0.304 | 0.217 | 0.56 | 0.944 | 0.626 | 0.877 | 0.501 | 1 | 0.616 | 0.524 | 0.882 | 0.396 | 0.734 | 0.969 | 0.34
4 | C=CCn1c(=O)c2cnc(Nc3ccc(N4CCN(C)CC4)cc3)nc2n1-c1cccc(C(C)(C)O)n1 [AZD1775] + C1CN(CCC1(C(=O)N[C@@H](CCO)C2=CC=C(C=C2)Cl)N)C3=NC=NC4=C3C=CN4 [Capivasertib] (first compound max 3 µM, partner max 3 µM) | 0.826 | 0.578 | 0.748 | 0.634 | 0.795 | 0.655 | 0.359 | 0.555 | 0.994 | 0.818 | 0.971 | 0.522 | 0.99 | 0.596 | 0.85 | 0.981 | 0.648 | 0.622 | 0.912 | 0.649
5 | COc1cccc(OCCCN)c1-c1cc(Nc2cnc(C#N)cn2)n[nH]1 [Prexasertib] + O=C(c1cc(Cc2n[nH]c(=O)c3ccccc23)ccc1F)N1CCN(C(=O)C2CC2)CC1 [Olaparib] (first compound max 1 µM, 7x7, partner max 10 µM) | 0.779 | 0.398 | 0.673 | 0.639 | 0.825 | 0.253 | 0.408 | 0.424 | 1 | 0.923 | 0.973 | 0.301 | 1 | 0.593 | 0.964 | 0.727 | 0.797 | 0.747 | 0.796 | 0.412
6 | CCN(CCO)CCCOc1ccc2c(Nc3cc(CC(=O)Nc4cccc(F)c4)[nH]n3)ncnc2c1 [AZD2811] + C[C@@H]1COCCN1C2=NC(=NC(=C2)C3(CC3)[S@](=N)(=O)C)C4=C5C=CNC5=NC=C4 [AZD6738] (first compound max 1 µM, 7x7, partner max 10 µM) | 0.646 | 0.332 | 0.492 | 0.289 | 0.663 | 0.312 | 0.279 | 0.477 | 0.968 | 0.832 | 0.913 | 0.524 | 1 | 0.583 | 0.764 | 0.641 | 0.441 | 0.621 | 0.799 | 0.435
7 | NC1(C(=O)N[C@@H](CCO)c2ccc(Cl)cc2)CCN(c2ncnc3[nH]ccc23)CC1 [Capivasertib] + CCN(CCO)CCCOc1ccc2c(Nc3cc(CC(=O)Nc4cccc(F)c4)[nH]n3)ncnc2c1 [AZD2811] (first compound max 10 µM, 7x7, partner max 1 µM) | 0.517 | 0.46 | 0.67 | 0.489 | 0.688 | 0.427 | 0.461 | 0.336 | 0.613 | 0.935 | 0.834 | 0.288 | 1 | 0.621 | 0.329 | 1 | 0.36 | 0.62 | 0.727 | 0.456
8 | Cc1cc2ncnn2cc1Nc1ncc2c(n1)n(C1CCOCC1)c(=O)n2C [AZD7648] + C[C@@H]1COCCN1C2=NC(=NC(=C2)C3(CC3)[S@](=N)(=O)C)C4=C5C=CNC5=NC=C4 [AZD6738] (first compound max 10 µM, 7x7, partner max 10 µM) | 0.514 | 0.428 | 0.577 | 0.435 | 0.771 | 0.317 | 0.388 | 0.427 | 0.92 | 0.677 | 0.893 | 0.461 | 1 | 0.576 | 0.717 | 0.846 | 0.56 | 0.751 | 0.769 | 0.54
9 | CC1(C)CCC(CN2CCN(c3ccc(C(=O)NS(=O)(=O)c4ccc(NCC5CCOCC5)c([N+](=O)[O-])c4)c(Oc4cnc5[nH]ccc5c4)c3)CC2)=C(c2ccc(Cl)cc2)C1 [Venetoclax] + CN(C)CCCOc1ccc(-c2ccc3ncc4c(c3c2)n(C2CCOCC2)c(=O)n4C)cn1 [AZD0156] (first compound max 1 µM, 7x7, partner max 1 µM) | 0.169 | 0.212 | 0.385 | 0.177 | 0.354 | 0.19 | 0.14 | 0.285 | 0.926 | 0.522 | 0.77 | 0.174 | 0.455 | 0.392 | 0.785 | 0.691 | 0.122 | 0.264 | 0.403 | 0.245
10 | COc1nnc2ccc(N3CCC(c4ccc(OCCN5CCN(C)C(=O)[C@H]5C)cc4)CC3)nn12 [AZD5153] + CC1(C)CCC(CN2CCN(c3ccc(C(=O)NS(=O)(=O)c4ccc(NCC5CCOCC5)c([N+](=O)[O-])c4)c(Oc4cnc5[nH]ccc5c4)c3)CC2)=C(c2ccc(Cl)cc2)C1 [Venetoclax] (first compound max 1 µM, 7x7, partner max 1 µM) | 0.756 | 0.509 | 0.54 | 0.546 | 0.569 | 0.333 | 0.258 | 0.692 | 1 | 0.663 | 0.929 | 0.513 | 0.978 | 0.484 | 0.547 | 0.951 | 0.264 | 0.633 | 0.924 | 0.607
11 | COc1nnc2ccc(N3CCC(c4ccc(OCCN5CCN(C)C(=O)[C@H]5C)cc4)CC3)nn12 [AZD5153] + Cc1c2c(nn1C)CSCc1cc(n(C)n1)CSc1cc(c3ccccc3c1)OCCCc1c(C(=O)O)n(C)c3c-2c(Cl)ccc13 [AZD5991] (first compound max 1 µM, 7x7, partner max 1 µM) | 0.864 | 0.651 | 0.652 | 0.553 | 0.744 | 0.798 | 0.323 | 0.719 | 1 | 0.982 | 0.978 | 0.527 | 1 | 0.53 | 0.942 | 1 | 0.891 | 0.691 | 0.987 | 1
12 | COc1cccc(OCCCN)c1-c1cc(Nc2cnc(C#N)cn2)n[nH]1 [Prexasertib] + CN(C)CCCOc1ccc(-c2ccc3ncc4c(c3c2)n(C2CCOCC2)c(=O)n4C)cn1 [AZD0156] (first compound max 1 µM, 7x7, partner max 1 µM) | 0.658 | 0.288 | 0.699 | 0.711 | 0.775 | 0.458 | 0.342 | 0.546 | 1 | 0.809 | 0.991 | 0.401 | 1 | 0.724 | 1 | 0.825 | 0.744 | 0.697 | 0.782 | 0.408
13 | Cc1cc2ncnn2cc1Nc1ncc2c(n1)n(C1CCOCC1)c(=O)n2C [AZD7648] + O=C(c1cc(Cc2n[nH]c(=O)c3ccccc23)ccc1F)N1CCN(C(=O)C2CC2)CC1 [Olaparib] (first compound max 10 µM, 7x7, partner max 10 µM) | 0.431 | 0.241 | 0.236 | 0.18 | 0.485 | 0.204 | 0.129 | 0.175 | 0.355 | 0.858 | 0.424 | 0.0683 | 0.96 | 0.26 | 0.212 | 0.761 | 0.215 | 0.281 | 0.393 | 0.236
